Reference: patent US9206432B2, “Sulfonylurea-responsive repressor proteins” (priority 2008, dated 2015)

Tests used:
[1] = pH 7; cited from earlier work
[2] = tested on: tet operator (tetO); assay: Electrophoretic gel mobility shift assay (EMSA), operator binding and release by inducer; settings: ethametsulfuron repressor protein (L7A11) on TetO (FIG. 7)
[3] = tested on: lacZ under control of the tetA promoter (PtetA) in E. coli KM3; type: cell-based; settings: L1 hits, SU compounds at 20 μg/ml

Row | SMILES | logP [1] | operator release by inducer [2] | potency as activator compared with Harmony® [3]
1 | COC(=O)c1sccc1S(=O)(=O)NC(=O)Nc1nc(C)nc(OC)n1 [Harmony®, Thifensulfuron-methyl] | ~0.02 | – | –
2 | Cc1c2c(c(O)c3c(O)cccc13)C(=O)[C@]1(O)C(=O)C(C(N)=O)=C(O)[C@@H](N(C)C)[C@@H]1C2 [atc, anhydrotetracycline] | – | No change in operator release | –
3 | CCOC(=O)c1ccccc1S(=O)(=O)NC(=O)Nc1nc(Cl)cc(OC)n1 [chlorimuron, Chlorimuron-ethyl, reference compound] | – | – | more potent activators than the starting ligand Harmony®
4 | COc1nc(C)nc(NC(=O)NS(=O)(=O)c2ccccc2Cl)n1 [chlorsulfuron, 2 chloro N ((4 methoxy 6 methy 1,3,5 triazine 2 yl)aminocarbonyl)benzenesulfonamide, reference compound] | – | – | more potent activators than the starting ligand Harmony®
5 | CCOc1nc(NC)nc(NC(=O)NS(=O)(=O)c2ccccc2C(=O)OC)n1 [ethametsulfuron, Ethametsulfuron-methyl, reference compound] | – | inducer preference for operator release by Es compared to Cs | more potent activators than the starting ligand Harmony®
